Assays:
hAChE = hAChE (Homo sapiens, UniProt P22303); test: ChE IC50 determination, method of Ellman, hAChE; type: biochemical
Method: The inhibitory potencies of the compounds against the ChEs were determined using the method of Ellman following the procedure described previously. Briefly, compound stock solutions in DMSO were incubated with Ellman’s reagent and ChEs (final concentrations: 370 μmol/L Ellman’s reagent, approximately 1 nmol/L or 50 pmol/L hBChE or hAChE, respectively) in 0.1 mol/L sodium phosphate pH 8.0 for 5 min at 20 °C. For time-dependency measurements, the pre-incubation time was varied (1, 5, 15, 30 or 60 min). The reactions were started by the addition of the substrate (final concentration, 500 μmol/L butyrylthiocholine iodide or acetylthiocholine iodide for hBChE and hAChE, respectively). The final content of DMSO was always 1%. The increase in absorbance at 412 nm was monitored for 2 min using a 96-well microplate reader (Synergy HT, BioTek Instruments, VT, USA). The initial velocities in the presence (vi) and absence (v0) of the test compounds were calculated. The inhibitory potencies were expressed as the residual activities, according to Eq. (1):(1) RA = vi / v0
For IC50 determinations, at least seven different concentrations for each compound were used. The IC50 values were obtained by plotting the residual ChE activities against the applied inhibitor concentrations, with the experimental data fitted to a four-parameter logistic function (GraphPad Prism 9.4). Tacrine and donepezil were used as positive controls.

[1] = Shake-flask partition coefficient / logD; type: physicochemical; conditions: n-octanol/PBS buffer
Method: Shake-flask partition coefficient measurement was done according to OECD guideline 107 (27. 7. 1995) and EPA OPPTS 830.7550 guideline (1996). […] […] Each solvent ratio was done in duplicates. The Eppendorf tubes were thoroughly shaken to ensure partition and centrifuged (5000 × g, 10 min) to separate the phases. Water phase (carefully sampled using needle and syringe) was transferred to HPLC vials directly, whereas n-octanol phases were diluted with MeCN (10–50×) prior to analysis. Additional dilutions were carried out, if needed.

[2] = system: ICR mice icv-injected with Aβ1–42; test: Novel object recognition, mice model with icv-injection of Aβ1–42; type: in vivo; conditions: ip, once a day, vs rivastigmine 4
Method: Mice model with icv-injection of Aβ1–42 The experiments were performed using ICR male mice (8–10 weeks old, weight 18–20 g), which were purchased from Shanghai Bikai Animal Breeding Factory (Shanghai, China). Animals were housed in cages (6 mice per cage) at a constant temperature of 25±2 °C, humidity of 55%±10% and a light/dark (12:12) cycle. The mice had unlimited access to food and water prior to the experiment. Specified conditions for the maintenance of mice were ensured throughout the experiments, including tree bedding (Yizheng Anlimao Biotechnology Co., Ltd., China) and lab feed (Zimao, China). For behavioural tests, mice were selected randomly, each group consisted of 6 mice. The experiments were performed between 9 am and 3 pm.
According to the literature procedure, recombinant human hexafluoroisopropanol-pretreated Aβ1–42 from Merck Millipore (Darmstadt, Germany) was dissolved in 1% DMSO, diluted with saline to the final concentration of 2 mg/mL, and incubated for 72 h to form oligomers. […]
Novel object recognition experiment was performed in a maze with dimensions 50 cm×50 cm×40 cm, with black cuboid (4 cm×4 cm×5 cm) as the old object, and white cylinder (2r = 5 cm, h = 5 cm) as the new object. […] Time spent exploring new and old objects was recorded using ANY-maze software and processed using GraphPad Prism 5.

hBChE = hBChE (Homo sapiens, UniProt P06276); conditions: expected nearly identical to compound 11 of the previous study (same carbamoyl residue at Ser198); cited from earlier work
[3] = Plasma and brain distribution profile in mice; conditions: 1 mg/kg, intravenous and peroral
Excerpt: Animals All mice used were 9–15 weeks old wild-type BALB/c mice bred in the Laboratory of Animal Genomics at the Faculty of Veterinary Medicine, University of Ljubljana. For intravenous administration, 4 males and one female were additionally purchased from Envigo RMS Holding Corp. Mice were conventionally bred in open polycarbonate cages (Tecniplast, Buguggiate, Italy) and provided with wood chip bedding (Lignocel®, Rettenmaier and Sons, Germany). Mice were kept under standard conditions, i.e., a 12:12 dark–light cycle (LED, CCT 3000 K, ≤ 25 lux above the cage), at temperature 21–24 °C, and 50%–60% humidity. They were fed irradiated rodent diet with minimal levels of phytoestrogens (Teklad global 16% protein rodent diet®, BN 2916, Envigo, Udine, Italy) and had access to drinkable tap water ad libitum.
For each time point, 4 mice, two females and two males, were used. A total of 24 animals were used (n = 24) for each route of administration. […] Peroral administration was performed via flexible plastic feeding tubes (20G × 30 mm, Instech Laboratories, USA) by gavage, with volume dose of 200 μL/20 g body weight. Intravenous administration into the tail vein was performed under isoflurane inhalation anesthesia (Isoflurin®, VetPharma, Spain) using a syringe (INSULIN100, 29G × 1/2″, 12.7 mm, CHINS00329, Chirana T. Injecta, a.s., Slovakia) with a volume dose of 150 μL. […]

hAChE, sequence (P22303 32-614): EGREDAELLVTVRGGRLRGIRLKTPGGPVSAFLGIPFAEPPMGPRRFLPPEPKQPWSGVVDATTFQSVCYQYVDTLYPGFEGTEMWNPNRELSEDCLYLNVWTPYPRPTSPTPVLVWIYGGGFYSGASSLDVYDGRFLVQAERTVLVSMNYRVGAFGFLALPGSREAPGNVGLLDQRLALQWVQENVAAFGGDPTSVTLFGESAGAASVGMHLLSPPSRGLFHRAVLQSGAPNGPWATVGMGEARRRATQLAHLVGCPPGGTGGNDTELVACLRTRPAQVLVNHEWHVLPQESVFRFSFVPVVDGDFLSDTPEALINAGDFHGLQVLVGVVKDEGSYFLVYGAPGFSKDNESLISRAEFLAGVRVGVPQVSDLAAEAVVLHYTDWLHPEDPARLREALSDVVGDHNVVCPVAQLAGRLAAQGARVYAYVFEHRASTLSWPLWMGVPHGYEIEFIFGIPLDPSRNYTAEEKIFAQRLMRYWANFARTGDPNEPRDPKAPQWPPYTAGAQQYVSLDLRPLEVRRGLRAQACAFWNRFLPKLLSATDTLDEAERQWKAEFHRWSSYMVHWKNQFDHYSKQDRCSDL
hBChE, sequence (P06276 29-602): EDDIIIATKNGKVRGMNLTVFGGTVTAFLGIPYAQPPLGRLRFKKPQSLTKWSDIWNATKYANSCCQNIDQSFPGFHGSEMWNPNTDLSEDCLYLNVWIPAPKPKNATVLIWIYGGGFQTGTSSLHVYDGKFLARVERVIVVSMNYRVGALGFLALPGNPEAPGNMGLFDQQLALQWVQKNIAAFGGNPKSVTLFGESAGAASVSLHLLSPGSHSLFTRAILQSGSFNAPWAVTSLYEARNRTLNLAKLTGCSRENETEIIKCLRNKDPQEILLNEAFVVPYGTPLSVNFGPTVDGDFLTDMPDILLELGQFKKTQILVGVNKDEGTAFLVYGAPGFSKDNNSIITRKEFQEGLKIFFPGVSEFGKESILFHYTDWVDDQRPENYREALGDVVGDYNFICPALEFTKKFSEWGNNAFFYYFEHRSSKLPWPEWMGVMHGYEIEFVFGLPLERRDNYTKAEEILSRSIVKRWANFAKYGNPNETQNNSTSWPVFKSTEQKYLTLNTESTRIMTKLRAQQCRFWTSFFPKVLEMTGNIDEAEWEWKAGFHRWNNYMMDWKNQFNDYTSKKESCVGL

Q: What does the source list for `CCN(CC)C(=O)n1cnc(C2(CC)Cc3ccccc3C2)c1` [Compound 8, N,N-Diethyl-4-(2-ethylindan-2-yl)-1H-imidazole-1-carboxamide]?
A: hAChE time-dependency observed: Yes/No (hAChE; pre-incubation time varied): No; remaining activity at 100 µM (hAChE; residual activity at 100 μmol/L, after 5 min preincubation, read-out: hAChE RA±SD (residual activity)): 62%; logD ([1]; pH 0.91): 0.3 ± 0.06; logD ([1]; pH 1.99): 1.18 ± 0.1; logD ([1]; pH 3.07): 2.17 ± 0.25; logD ([1]; pH 4.44): 3.05 ± 0.1; logD ([1]; pH 6.02): 3.15 ± 0.14; logD ([1]; pH 7.4): 3.33 ± 0.11; logD ([1]; pH 9.55): 3.52 ± 0.39; recognition memory in novel object recognition task [2]: restored recognition memory comparable or better than 4; kdecarb, decarbamoylation (hBChE): ∼0.22[53] ×10^–2 h^–1; t1/2, decarbamoylation (hBChE): ∼318[53] h; blood–brain barrier permeation [3]: quickly permeated the blood–brain barrier
